Measurements reported in ChEMBL document CHEMBL1201862, “PubChem BioAssay data set” (2004).
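Briefly, cells in 96-well plates were exposed to five compound concentrations for 48 h, and endpoints were estimated by linear interpolation. GI50 = concentration required for 50% inhibition of growth.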 Activity calls are given as the source filed them. No stated cut-off is given here; in the data, active = GI50 up to about 1.1 µM and inactive = higher.

Legend:
Test in all cases: NCI-60 cell line screen, 48 h
786-0 = tested on: 786-0
A549 = tested on: A549
ACHN = tested on: ACHN
CAKI-1 = tested on: CAKI-1
COLO 205 = tested on: COLO 205
DLD-1 = tested on: DLD-1
DMS-114 = tested on: DMS-114
DMS-273 = tested on: DMS-273
EKVX = tested on: EKVX
HCC 2998 = tested on: HCC 2998
HCT-116 = tested on: HCT-116
HCT-15 = tested on: HCT-15
HOP-18 = tested on: HOP-18
HOP-62 = tested on: HOP-62
HOP-92 = tested on: HOP-92
HT-29 = tested on: HT-29
IGROV-1 = tested on: IGROV-1
KM-20L2 = tested on: KM-20L2
KM12 = tested on: KM12
LOX IMVI = tested on: LOX IMVI
LXFL 529 = tested on: LXFL 529
M14 = tested on: M14
M19-MEL = tested on: M19-MEL
Malme-3M = tested on: Malme-3M
NCI-H226 = tested on: NCI-H226
NCI-H23 = tested on: NCI-H23
NCI-H460 = tested on: NCI-H460
OVCAR-3 = tested on: OVCAR-3
OVCAR-4 = tested on: OVCAR-4
OVCAR-5 = tested on: OVCAR-5
OVCAR-8 = tested on: OVCAR-8
RPMI-8226 = tested on: RPMI-8226
RXF 393 = tested on: RXF 393
SF-268 = tested on: SF-268
SF-295 = tested on: SF-295
SF-539 = tested on: SF-539
SK-MEL-28 = tested on: SK-MEL-28
SK-MEL-2 = tested on: SK-MEL-2
SK-OV-3 = tested on: SK-OV-3
SN12C = tested on: SN12C
SNB-19 = tested on: SNB-19
SNB-75 = tested on: SNB-75
SNB-78 = tested on: SNB-78
SW-620 = tested on: SW-620
TK-10 = tested on: TK-10
U-251 = tested on: U-251
UACC-257 = tested on: UACC-257
UACC-62 = tested on: UACC-62
UO-31 = tested on: UO-31
XF498 = tested on: XF498
A498 = tested on: A498
CCRF-CEM = tested on: CCRF-CEM
HL-60 = tested on: HL-60
K562 = tested on: K562
MOLT-4 = tested on: MOLT-4
NCI-H522 = tested on: NCI-H522
SK-MEL-5 = tested on: SK-MEL-5
SR = tested on: SR
MCF7 = tested on: MCF7
NCI/ADR-RES = tested on: NCI/ADR-RES

CCOC(=O)C(=O)Nc1c(C)cccc1C
GI50 (786-0): > 100 µM (inactive) | GI50 (A549): > 100 µM (inactive) | GI50 (ACHN): > 100 µM (inactive) | GI50 (CAKI-1): > 100 µM (inactive) | GI50 (COLO 205): > 100 µM (inactive) | GI50 (DLD-1): > 100 µM (inactive) | GI50 (DMS-114): > 100 µM (inactive) | GI50 (DMS-273): > 100 µM (inactive) | GI50 (EKVX): > 100 µM (inactive) | GI50 (HCC 2998): > 100 µM (inactive) | GI50 (HCT-116): > 100 µM (inactive) | GI50 (HCT-15): > 100 µM | GI50 (HOP-18): > 100 µM (inactive) | GI50 (HOP-62): > 100 µM (inactive) | GI50 (HOP-92): > 100 µM (inactive) | GI50 (HT-29): > 100 µM (inactive) | GI50 (IGROV-1): > 100 µM (inactive) | GI50 (KM-20L2): > 100 µM (inactive) | GI50 (KM12): > 100 µM (inactive) | GI50 (LOX IMVI): > 100 µM (inactive) | GI50 (LXFL 529): > 100 µM (inactive) | GI50 (M14): > 100 µM (inactive) | GI50 (M19-MEL): > 100 µM (inactive) | GI50 (Malme-3M): > 100 µM (inactive) | GI50 (NCI-H226): > 100 µM (inactive) | GI50 (NCI-H23): > 100 µM (inactive) | GI50 (NCI-H460): > 100 µM (inactive) | GI50 (OVCAR-3): > 100 µM (inactive) | GI50 (OVCAR-4): > 100 µM (inactive) | GI50 (OVCAR-5): > 100 µM (inactive) | GI50 (OVCAR-8): > 100 µM (inactive) | GI50 (RPMI-8226): > 100 µM (inactive) | GI50 (RXF 393): > 100 µM (inactive) | GI50 (SF-268): > 100 µM (inactive) | GI50 (SF-295): > 100 µM (inactive) | GI50 (SF-539): > 100 µM (inactive) | GI50 (SK-MEL-28): > 100 µM (inactive) | GI50 (SK-MEL-2): > 100 µM (inactive) | GI50 (SK-OV-3): > 100 µM (inactive) | GI50 (SN12C): > 100 µM (inactive) | GI50 (SNB-19): > 100 µM (inactive) | GI50 (SNB-75): > 100 µM (inactive) | GI50 (SNB-78): > 100 µM (inactive) | GI50 (SW-620): > 100 µM (inactive) | GI50 (TK-10): > 100 µM (inactive) | GI50 (U-251): > 100 µM (inactive) | GI50 (UACC-257): > 100 µM (inactive) | GI50 (UACC-62): > 100 µM (inactive) | GI50 (UO-31): > 100 µM (inactive) | GI50 (XF498): > 100 µM (inactive)

N#Cc1c2ccccc2c(Cc2ccc3c(c2)OCCOCCOCCOCCOCCO3)c2ccccc12
GI50 (786-0): 10.9 µM (inactive) | GI50 (A498): 13.3 µM (inactive) | GI50 (A549): 4.29 µM (inactive) | GI50 (ACHN): 9.86 µM (inactive) | GI50 (CAKI-1): 10.1 µM (inactive) | GI50 (CCRF-CEM): 3.21 µM (inactive) | GI50 (DLD-1): 10.3 µM (inactive) | GI50 (DMS-114): 10.4 µM (inactive) | GI50 (DMS-273): 4.68 µM (inactive) | GI50 (EKVX): 16.3 µM (inactive) | GI50 (HCC 2998): 11.8 µM (inactive) | GI50 (HCT-116): 6.12 µM (inactive) | GI50 (HCT-15): 5.57 µM | GI50 (HL-60): 1.85 µM (inactive) | GI50 (HOP-18): 10.1 µM (inactive) | GI50 (HOP-62): 10.3 µM (inactive) | GI50 (HOP-92): 3.99 µM (inactive) | GI50 (IGROV-1): 4.34 µM (inactive) | GI50 (K562): 3.15 µM (inactive) | GI50 (KM-20L2): 10 µM (inactive) | GI50 (KM12): 5.5 µM (inactive) | GI50 (LOX IMVI): 6.04 µM (inactive) | GI50 (LXFL 529): 5.46 µM (inactive) | GI50 (M14): 5.37 µM (inactive) | GI50 (MOLT-4): 2.82 µM (inactive) | GI50 (Malme-3M): 6.44 µM (inactive) | GI50 (NCI-H226): 11.9 µM (inactive) | GI50 (NCI-H23): 11.4 µM (inactive) | GI50 (NCI-H460): 6.7 µM (inactive) | GI50 (NCI-H522): 10.8 µM (inactive) | GI50 (OVCAR-3): 4.23 µM (inactive) | GI50 (OVCAR-4): 3 µM (inactive) | GI50 (OVCAR-5): 16.4 µM (inactive) | GI50 (OVCAR-8): 5.65 µM (inactive) | GI50 (RPMI-8226): 3.11 µM (inactive) | GI50 (RXF 393): 2.32 µM (inactive) | GI50 (SF-268): 5.28 µM (inactive) | GI50 (SF-295): 8.69 µM (inactive) | GI50 (SF-539): 14.1 µM (inactive) | GI50 (SK-MEL-28): 3.28 µM (inactive) | GI50 (SK-MEL-2): 6.34 µM (inactive) | GI50 (SK-MEL-5): 4.35 µM (inactive) | GI50 (SK-OV-3): 13.6 µM (inactive) | GI50 (SN12C): 10.1 µM (inactive) | GI50 (SNB-19): 9.66 µM (inactive) | GI50 (SNB-78): 9.14 µM (inactive) | GI50 (SR): 24.5 µM (inactive) | GI50 (SW-620): 6.71 µM (inactive) | GI50 (TK-10): 5.01 µM (inactive) | GI50 (U-251): 9.44 µM (inactive) | GI50 (UACC-257): 9.27 µM (inactive) | GI50 (UACC-62): 6.41 µM (inactive) | GI50 (UO-31): 3.85 µM (inactive) | GI50 (XF498): 10.5 µM (inactive)

CN1C(=O)c2ccccc2NC(=O)c2cnn(C)c21
GI50 (A498): > 100 µM (inactive) | GI50 (A549): > 100 µM (inactive) | GI50 (CAKI-1): > 100 µM (inactive) | GI50 (CCRF-CEM): > 100 µM (inactive) | GI50 (COLO 205): > 100 µM (inactive) | GI50 (DLD-1): > 100 µM (inactive) | GI50 (DMS-114): > 100 µM (inactive) | GI50 (DMS-273): > 100 µM (inactive) | GI50 (EKVX): > 100 µM (inactive) | GI50 (HCC 2998): > 100 µM (inactive) | GI50 (HCT-116): > 21.6 µM (inactive) | GI50 (HCT-15): > 100 µM | GI50 (HL-60): > 100 µM (inactive) | GI50 (HOP-18): > 100 µM (inactive) | GI50 (HOP-62): > 100 µM (inactive) | GI50 (HOP-92): > 100 µM (inactive) | GI50 (HT-29): > 100 µM (inactive) | GI50 (IGROV-1): > 100 µM (inactive) | GI50 (K562): > 100 µM (inactive) | GI50 (KM-20L2): > 100 µM (inactive) | GI50 (KM12): > 100 µM (inactive) | GI50 (LOX IMVI): > 100 µM (inactive) | GI50 (M19-MEL): > 100 µM (inactive) | GI50 (MCF7): > 100 µM (inactive) | GI50 (MOLT-4): > 100 µM (inactive) | GI50 (Malme-3M): > 100 µM (inactive) | GI50 (NCI-H226): > 100 µM (inactive) | GI50 (NCI-H23): > 100 µM (inactive) | GI50 (NCI-H460): > 100 µM (inactive) | GI50 (NCI-H522): > 100 µM (inactive) | GI50 (NCI/ADR-RES): > 100 µM (inactive) | GI50 (OVCAR-3): > 100 µM (inactive) | GI50 (OVCAR-4): > 100 µM (inactive) | GI50 (OVCAR-5): > 100 µM (inactive) | GI50 (OVCAR-8): > 100 µM (inactive) | GI50 (RPMI-8226): > 100 µM (inactive) | GI50 (RXF 393): > 100 µM (inactive) | GI50 (SF-268): > 100 µM (inactive) | GI50 (SF-295): > 100 µM (inactive) | GI50 (SF-539): > 100 µM (inactive) | GI50 (SK-MEL-28): > 100 µM (inactive) | GI50 (SK-MEL-2): > 100 µM (inactive) | GI50 (SK-MEL-5): > 100 µM (inactive) | GI50 (SK-OV-3): > 100 µM (inactive) | GI50 (SN12C): > 100 µM (inactive) | GI50 (SNB-19): > 100 µM (inactive) | GI50 (SNB-75): > 100 µM (inactive) | GI50 (SNB-78): > 100 µM (inactive) | GI50 (SW-620): > 100 µM (inactive) | GI50 (U-251): > 100 µM (inactive) | GI50 (UACC-257): > 100 µM (inactive) | GI50 (UACC-62): > 100 µM (inactive) | GI50 (UO-31): > 100 µM (inactive) | GI50 (XF498): > 100 µM (inactive)
